Some test systems named below: 786-0 renal; HOP-62 NSCLC; HOP-92 NSCLC; IGROV1 ovarian; KM12 colon; NCI-H226 lung; NCI-H23 lung; NCI-H460 lung; OVCAR-8 ovarian; RPMI-8226 leukemia; SK-MEL-5 melanoma; SK-OV-3 ovarian; SNB-19 CNS; UACC-62 melanoma; EKVX NSCLC.
Common to all, as to test: inhibition of tumour cell growth, NCI panel, 48 h

The structures appear in SMILES notation.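 Growth conditions: 96-well plates. Treatment: test compound, 48 hours, 5 concentrations. Analysis: linear interpolation between bracketing concentrations; unreached endpoints set to highest concentration. GI50 = concentration required for 50% inhibition of growth. At the TGI there is no net growth.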

Take `Cc1cc(N(CCC#N)CCC#N)ccc1/C=C1N=C(/C=C\c2ccccc2)N(NC(=O)CC(=O)Nc2ccccc2Cl)C\1=O`: the TGI in the assay with 786-0 renal, with HOP-62 NSCLC, in the assay with HOP-92 NSCLC, in the assay on IGROV1 ovarian, in the assay with KM12 colon and with NCI-H226 lung was greater than 100 µM throughout. Also, the TGI with NCI-H23 lung, in the assay on NCI-H460 lung, with OVCAR-8 ovarian, in the assay on RPMI-8226 leukemia, in the assay on SK-MEL-5 melanoma and in the assay with SK-OV-3 ovarian was greater than 100 µM throughout. The TGI in the assay with SNB-19 CNS and in the assay on UACC-62 melanoma was greater than 100 µM each time.
As for `NC(=O)N/N=C(\CC1OC(=O)c2ccccc21)c1ccc([N+](=O)[O-])cc1` (centres undefined), the TGI is 32 µM in the assay with 786-0 renal; greater than 100 µM in the assay with EKVX NSCLC; 53.6 µM in the assay on HOP-62 NSCLC; 49.8 µM in the assay with IGROV1 ovarian; 95.9 µM in the assay on KM12 colon; greater than 100 µM in the assay on NCI-H460 lung. The TGI with RPMI-8226 leukemia was greater than 100 µM; in the assay on SK-MEL-5 melanoma it was 47.2 µM; in the assay with SNB-19 CNS, 51.6 µM; in the assay with UACC-62 melanoma, 34.8 µM.
Consider `CC(=O)OCC12CC(CC1OC(C)=O)c1ccccc12` (centres undefined), for which the TGI in the assay on 786-0 renal, in the assay with HOP-62 NSCLC, with HOP-92 NSCLC, in the assay with IGROV1 ovarian, with NCI-H226 lung and in the assay on NCI-H23 lung was greater than 100 µM in each case. The TGI in the assay with NCI-H460 lung, with OVCAR-8 ovarian, in the assay on RPMI-8226 leukemia, with SK-MEL-5 melanoma, in the assay with SK-OV-3 ovarian and with SNB-19 CNS was greater than 100 µM each time. Also, the TGI in the assay with UACC-62 melanoma was greater than 100 µM.
As for `CCOC(=O)C(C)NC(=O)NC12CC3CC(CC(F)(C3)C1)C2` (centres undefined), the TGI is greater than 100 µM in the assay on 786-0 renal; greater than 100 µM in the assay with EKVX NSCLC; greater than 100 µM in the assay on HOP-62 NSCLC; 56.2 µM in the assay on HOP-92 NSCLC; greater than 100 µM with IGROV1 ovarian; greater than 100 µM in the assay on KM12 colon. Also, the TGI with NCI-H23 lung, with NCI-H460 lung, in the assay with OVCAR-8 ovarian, in the assay on RPMI-8226 leukemia, in the assay with SK-MEL-5 melanoma and in the assay with SK-OV-3 ovarian was greater than 100 µM throughout. Besides, the TGI in the assay with SNB-19 CNS and in the assay with UACC-62 melanoma was greater than 100 µM each time.
On to `O=C1C(Cl)C(c2ccccc2Cl)N1n1cnc2ccccc2c1=O` (centres undefined), for which the TGI in the assay on 786-0 renal is greater than 100 µM; in the assay with EKVX NSCLC it was greater than 100 µM; with HOP-62 NSCLC it was greater than 100 µM; in the assay on IGROV1 ovarian it was greater than 100 µM; with KM12 colon, greater than 100 µM; in the assay with NCI-H226 lung, 91.4 µM. For the same molecule, the TGI was greater than 100 µM in the assay on NCI-H23 lung; greater than 100 µM in the assay with NCI-H460 lung; greater than 100 µM in the assay on OVCAR-8 ovarian; greater than 100 µM in the assay on RPMI-8226 leukemia; greater than 100 µM with SK-MEL-5 melanoma; 72.5 µM with SK-OV-3 ovarian. For the same molecule, the TGI with SNB-19 CNS and in the assay with UACC-62 melanoma was greater than 100 µM each time.
Consider `N#CC(NNC(=O)Cc1ccccc1)c1ccc([N+](=O)[O-])cc1` (centres undefined), for which the TGI with 786-0 renal, in the assay on HOP-62 NSCLC, in the assay with HOP-92 NSCLC, with IGROV1 ovarian, with KM12 colon and in the assay on NCI-H226 lung was greater than 100 µM in each case. Besides, the TGI in the assay with NCI-H23 lung, with NCI-H460 lung, in the assay on OVCAR-8 ovarian, with RPMI-8226 leukemia, in the assay with SK-MEL-5 melanoma and in the assay with SK-OV-3 ovarian was greater than 100 µM throughout. In addition, the TGI in the assay on UACC-62 melanoma is greater than 100 µM.
For the molecule `COc1cc2c(c(OC)c1OC)-c1ccc(SC)c(=O)cc1[C@@H](NC(=O)c1cccc([N+](=O)[O-])c1)CC2`, the TGI in the assay on 786-0 renal was 11.8 µM; with EKVX NSCLC, 27.3 µM; in the assay on HOP-62 NSCLC, 14.9 µM; in the assay on IGROV1 ovarian, 35.6 µM; with KM12 colon, greater than 100 µM; in the assay with SK-MEL-5 melanoma, 0.0467 µM. For the same molecule, the values for the TGI with SK-OV-3 ovarian and in the assay with UACC-62 melanoma were 0.0638 µM and 36.4 µM, respectively. The GI50 in the assay with SNB-19 CNS was 0.0268 µM.
In the case of `CC(C)N(C(=O)C12C3C4C5C3C1(C(=O)O)C5C42)C(C)C` (centres undefined), the TGI in the assay on 786-0 renal, in the assay with EKVX NSCLC, in the assay with HOP-62 NSCLC, with HOP-92 NSCLC, with IGROV1 ovarian and with KM12 colon was greater than 100 µM each time. The TGI in the assay with NCI-H23 lung, in the assay on NCI-H460 lung, in the assay with OVCAR-8 ovarian, with RPMI-8226 leukemia, in the assay with SK-MEL-5 melanoma and in the assay with SK-OV-3 ovarian was greater than 100 µM throughout. Moreover, the TGI with SNB-19 CNS and in the assay with UACC-62 melanoma was greater than 100 µM throughout.
For the molecule `CCc1cccc(C(C)C)c1NC(=O)/C(=N\NC(N)=O)C(C(=O)OC)c1cnc2ccccc2n1` (centres undefined), the TGI in the assay with 786-0 renal, in the assay with EKVX NSCLC, with HOP-62 NSCLC, in the assay with IGROV1 ovarian, in the assay with KM12 colon and in the assay on NCI-H226 lung was greater than 100 µM in each case. The TGI in the assay with NCI-H23 lung was 57.5 µM; with NCI-H460 lung it was 80.7 µM; with OVCAR-8 ovarian, greater than 100 µM; in the assay with SK-MEL-5 melanoma, 35.1 µM; in the assay with SK-OV-3 ovarian, greater than 100 µM; in the assay with SNB-19 CNS, greater than 100 µM. The molecule also showed a TGI in the assay on UACC-62 melanoma of 62.7 µM.

The values above are taken from PubChem BioAssay (NCI).
